# Results: patent US8637550B2, “Heteroaryl diamide compounds useful as MMP-13 inhibitors” (Boehringer Ingelheim International GmbH, priority 2008, dated 2014)
# Several values for one entry are separate records, joined by “and”; a condition that tells them apart may be missing. Equal values may be shown once.
# Biological target: MMP-13 (Homo sapiens, UniProt P45452)
# Experiment: EnzoLyte 520 Generic MMP Assay Kit, 5-FAM/QXL520 FRET peptide substrate
# Type: biochemical
# Excerpt: The EnzoLyte™ 520 Generic MMP Assay Kit (AnaSpec Inc.) can detect the activity of several MMPs including MMP-1, 2, 3, 7, 8, 9, 13, and 14. This kit uses a 5-FAM/QXL™520 fluorescence resonance energy transfer (FRET) peptide as an MMP substrate.
row,SMILES,IC50
1,CNC(=O)[C@@H](NC(=O)c1ccc(-c2cccc(CNC(=O)C3CC3)c2)o1)C1CCCCC1 [N-[(1S)-1-cyclohexyl-2-(methylamino)-2-oxoethyl]-5-(3-{[(cyclopropylcarbonyl)amino]methyl}phenyl)furan-2-carboxamide],397 nM
2,CNC(=O)[C@@H](NC(=O)c1ccc(-c2cccc(CNC(=O)c3ccco3)c2)o1)C1CCCCC1 [N-[(1S)-1-cyclohexyl-2-(methylamino)-2-oxoethyl]-5-(3-{[(furan-2-ylcarbonyl)amino]methyl}phenyl)furan-2-carboxamide],75 nM
3,CNC(=O)[C@@H](NC(=O)c1ccc(-c2cccc(CNC(=O)NC(C)C)c2)o1)C1CCCCC1 [N-[(1S)-1-cyclohexyl-2-(methylamino)-2-oxoethyl]-5-(3-{[(propan-2-ylcarbamoyl)amino]methyl}phenyl)furan-2-carboxamide],205 nM
4,CCOc1ccc(-c2ccc(C(=O)N[C@H](C(=O)NC)C3CCCCC3)o2)cc1 [N-[(1S)-1-cyclohexyl-2-(methylamino)-2-oxoethyl]-5-(4-ethoxyphenyl)furan-2-carboxamide],270 nM
5,CCc1ccc(-c2ccc(C(=O)N[C@H](C(=O)NC)C3CCCCC3)o2)cc1 [N-[(1S)-1-cyclohexyl-2-(methylamino)-2-oxoethyl]-5-(4-ethylphenyl)furan-2-carboxamide],315 nM
6,CNC(=O)[C@@H](NC(=O)c1ccc(-c2ccc(C)cc2)o1)C1CCCCC1 [N-[(1S)-1-cyclohexyl-2-(methylamino)-2-oxoethyl]-5-(4-methylphenyl)furan-2-carboxamide],290 nM
7,CNC(=O)[C@@H](NC(=O)c1ccc(-c2ccc(CNC(=O)C3CC3)cc2)o1)C1CCCCC1 [N-[(1S)-1-cyclohexyl-2-(methylamino)-2-oxoethyl]-5-(4-{[(cyclopropylcarbonyl)amino]methyl}phenyl)furan-2-carboxamide],423 nM
8,CCOc1ccc(-c2ccc(C(=O)N[C@H](C(=O)NC)C3CCCCC3)o2)nc1 [N-[(1S)-1-cyclohexyl-2-(methylamino)-2-oxoethyl]-5-(5-ethoxypyridin-2-yl)furan-2-carboxamide],32 nM
9,CNC(=O)[C@@H](NC(=O)c1ccc(-c2cccc(CNC(=O)c3ccoc3C)c2)o1)C1CCCCC1 [N-[(1S)-1-cyclohexyl-2-(methylamino)-2-oxoethyl]-5-[3-({[(2-methylfuran-3-yl)carbonyl]amino}methyl)phenyl]furan-2-carboxamide],330 nM
10,"CNC(=O)[C@@H](NC(=O)c1ccc(-c2cccc(CNC(=O)c3cc(C)c(C)s3)c2)o1)C1CCCCC1 [N-[(1S)-1-cyclohexyl-2-(methylamino)-2-oxoethyl]-5-[3-({[(4,5-dimethylthiophen-2-yl)carbonyl]amino}methyl)phenyl]furan-2-carboxamide]",50 nM
11,CNC(=O)[C@@H](NC(=O)c1ccc(-c2ccc(-c3cnn(C)c3)cc2)o1)C1CCCCC1 [N-[(1S)-1-cyclohexyl-2-(methylamino)-2-oxoethyl]-5-[4-(1-methyl-1H-pyrazol-4-yl)phenyl]furan-2-carboxamide],25 nM
12,CNC(=O)[C@@H](NC(=O)c1ccc(-c2ccc(S(=O)(=O)NC)cc2)o1)C1CCCCC1 [N-[(1S)-1-cyclohexyl-2-(methylamino)-2-oxoethyl]-5-[4-(methylsulfamoyl)phenyl]furan-2-carboxamide],480 nM
13,CNC(=O)[C@@H](NC(=O)c1ccc(-c2ccc(SC)cc2)o1)C1CCCCC1 [N-[(1S)-1-cyclohexyl-2-(methylamino)-2-oxoethyl]-5-[4-(methylsulfanyl)phenyl]furan-2-carboxamide],175 nM
14,CNC(=O)[C@@H](NC(=O)c1ccc(-c2ccc(OCc3ccn[nH]3)cn2)o1)C1CCCCC1 [N-[(1S)-1-cyclohexyl-2-(methylamino)-2-oxoethyl]-5-[5-(1H-pyrazol-5-ylmethoxy)pyridin-2-yl]furan-2-carboxamide],6 nM
15,CNC(=O)[C@@H](NC(=O)c1ccc(-c2ccc(OCc3ccccn3)cn2)o1)C1CCCCC1 [N-[(1S)-1-cyclohexyl-2-(methylamino)-2-oxoethyl]-5-[5-(pyridin-2-ylmethoxy)pyridin-2-yl]furan-2-carboxamide],21 nM

# The next lines start with the values.
row,IC50,SMILES
1,2 nM,CNC(=O)[C@@H](NC(=O)c1ccc(-c2ccc(OCc3cccnc3)cn2)o1)C1CCCCC1 [N-[(1S)-1-cyclohexyl-2-(methylamino)-2-oxoethyl]-5-[5-(pyridin-3-ylmethoxy)pyridin-2-yl]furan-2-carboxamide]
2,1 nM,CNC(=O)[C@@H](NC(=O)c1ccc(-c2ccc(OCc3ccncc3)cn2)o1)C1CCCCC1 [N-[(1S)-1-cyclohexyl-2-(methylamino)-2-oxoethyl]-5-[5-(pyridin-4-ylmethoxy)pyridin-2-yl]furan-2-carboxamide]
3,455 nM,CNC(=O)[C@@H](NC(=O)c1ccc(-c2ccc(NS(C)(=O)=O)cc2)o1)C1CCCCC1 [N-[(1S)-1-cyclohexyl-2-(methylamino)-2-oxoethyl]-5-{4-[(methylsulfonyl)amino]phenyl}furan-2-carboxamide]
4,19 nM,CNC(=O)[C@@H](NC(=O)c1ccc(-c2ccc(OCc3c[nH]cn3)cn2)o1)C1CCCCC1 [N-[(1S)-1-cyclohexyl-2-(methylamino)-2-oxoethyl]-5-{5-(1H-imidazol-5-ylmethoxy)pyridin-2-yl]furan-2-carboxamide]
5,4 nM,"CNC(=O)[C@@H](NC(=O)c1ccc(-c2ccc(OCc3cc(C)n(C)n3)cn2)o1)C1CCCCC1 [N-[(1S)-1-cyclohexyl-2-(methylamino)-2-oxoethyl]-5-{5-[(1,5-dimethyl-1H-pyrazol-3-yl)methoxy]pyridin-2-yl}furan-2-carboxamide]"
6,119 nM,CNC(=O)[C@@H](NC(=O)c1ccc(-c2ccc(OCc3cn(C)cn3)cn2)o1)C1CCCCC1 [N-[(1S)-1-cyclohexyl-2-(methylamino)-2-oxoethyl]-5-{5-[(1-methyl-1H-imidazol-4-yl)methoxy]pyridin-2-yl}furan-2-carboxamide]
7,18 nM,CNC(=O)[C@@H](NC(=O)c1ccc(-c2ccc(OCc3cncn3C)cn2)o1)C1CCCCC1 [N-[(1S)-1-cyclohexyl-2-(methylamino)-2-oxoethyl]-5-{5-[(1-methyl-1H-imidazol-5-yl)methoxy]pyridin-2-yl}furan-2-carboxamide]
8,25 nM,CNC(=O)[C@@H](NC(=O)c1ccc(-c2ccc(OCc3ccn(C)n3)cn2)o1)C1CCCCC1 [N-[(1S)-1-cyclohexyl-2-(methylamino)-2-oxoethyl]-5-{5-[(1-methyl-1H-pyrazol-3-yl)methoxy]pyridin-2-yl}furan-2-carboxamide]
9,6 nM,CNC(=O)[C@@H](NC(=O)c1ccc(-c2ccc(OCc3ccnn3C)cn2)o1)C1CCCCC1 [N-[(1S)-1-cyclohexyl-2-(methylamino)-2-oxoethyl]-5-{5-[(1-methyl-1H-pyrazol-5-yl)methoxy]pyridin-2-yl}furan-2-carboxamide]
10,3 nM,CNC(=O)[C@@H](NC(=O)c1ccc(-c2ccc(O[C@H](C)c3ccncc3)cn2)o1)C1CCCCC1 [N-[(1S)-1-cyclohexyl-2-(methylamino)-2-oxoethyl]-5-{5-[(1R)-1-(pyridin-4-yl)ethoxy]pyridin-2-yl}furan-2-carboxamide]
11,41 nM and 73 nM,CNC(=O)[C@@H](NC(=O)c1ccc(-c2ccc(O[C@H](C)c3ccccc3)cn2)o1)C1CCCCC1 [N-[(1S)-1-cyclohexyl-2-(methylamino)-2-oxoethyl]-5-{5-[(1R)-1-phenylethoxy]pyridin-2-yl}furan-2-carboxamide]
12,295 nM,CNC(=O)[C@@H](NC(=O)c1ccc(-c2ccc(O[C@@H](C)c3ccccc3)cn2)o1)C1CCCCC1 [N-[(1S)-1-cyclohexyl-2-(methylamino)-2-oxoethyl]-5-{5-[(1S)-1-phenylethoxy]pyridin-2-yl}furan-2-carboxamide]
13,2 nM,"CNC(=O)[C@@H](NC(=O)c1ccc(-c2ccc(OCc3cc(C)nc(C)c3)cn2)o1)C1CCCCC1 [N-[(1S)-1-cyclohexyl-2-(methylamino)-2-oxoethyl]-5-{5-[(2,6-dimethylpyridin-4-yl)methoxy]pyridin-2-yl}furan-2-carboxamide]"
14,1 nM,CNC(=O)[C@@H](NC(=O)c1ccc(-c2ccc(OCc3ccnc(C)c3)cn2)o1)C1CCCCC1 [N-[(1S)-1-cyclohexyl-2-(methylamino)-2-oxoethyl]-5-{5-[(2-methylpyridin-4-yl)methoxy]pyridin-2-yl}furan-2-carboxamide]
15,115 nM,"CNC(=O)[C@@H](NC(=O)c1ccc(-c2ccc(OCc3cc(C)cc(C)c3)cn2)o1)C1CCCCC1 [N-[(1S)-1-cyclohexyl-2-(methylamino)-2-oxoethyl]-5-{5-[(3,5-dimethylbenzyl)oxy]pyridin-2-yl}furan-2-carboxamide]"
16,36 nM,CNC(=O)[C@@H](NC(=O)c1ccc(-c2ccc(OCc3cccc(C)c3)cn2)o1)C1CCCCC1 [N-[(1S)-1-cyclohexyl-2-(methylamino)-2-oxoethyl]-5-{5-[(3-methylbenzyl)oxy]pyridin-2-yl}furan-2-carboxamide]
17,3 nM,CNC(=O)[C@@H](NC(=O)c1ccc(-c2ccc(OCc3ccncc3C)cn2)o1)C1CCCCC1 [N-[(1S)-1-cyclohexyl-2-(methylamino)-2-oxoethyl]-5-{5-[(3-methylpyridin-4-yl)methoxy]pyridin-2-yl}furan-2-carboxamide]
18,8 nM,CNC(=O)[C@@H](NC(=O)c1ccc(-c2ccc(OCc3cc(C)ccn3)cn2)o1)C1CCCCC1 [N-[(1S)-1-cyclohexyl-2-(methylamino)-2-oxoethyl]-5-{5-[(4-methylpyridin-2-yl)methoxy]pyridin-2-yl}furan-2-carboxamide]
19,163 nM,CNC(=O)[C@@H](NC(=O)c1ccc(-c2ccc(OCc3cn(C)cn3)cn2)o1)C1CCNCC1 [N-[(1S)-2-(methylamino)-2-oxo-1-(piperidin-4-yl)ethyl]-5-{5-[(1-methyl-1H-imidazol-4-yl)methoxy]pyridin-2-yl}furan-2-carboxamide]
20,325 nM,NC(=O)COCCNC(=O)[C@@H](NC(=O)c1ccc(-c2ccc(Cl)cc2)o1)C1CCCCC1 [N-[(1S)-2-{[2-(2-amino-2-oxoethoxy)ethyl]amino}-1-cyclohexyl-2-oxoethyl]-5-(4-chlorophenyl)furan-2-carboxamide]
